Like-named read-outs stand apart in the source and are kept apart here.
What was measured:
[1] = test system: TAP; details: previous study, Neisig et al., 1995; cited from earlier work
[2] = test system: TAP; assay: TAP translocation of peptides into the endoplasmic reticulum; assay type: biochemical
[3] = test system: T2 cells; assay: 51Cr cytotoxicity assay with peptide pulsed targets; assay type: cell-based, human; details: targets pulsed at high peptide concentrations
Procedure: CTL activity was measured in a standard chromium release assay. Briefly, after ^51Cr labeling, target cells were pulsed with the designated peptide concentrations for 30 min or longer at 37° C. Target cells were added to various number of effector cells in a final volume of 100 μl complete culture medium in 96-well-U-bottom plates. After 4 h incubation at 37° C. supernatants were harvested.

Sequence	translocation by TAP into the ER [1]	translocation by TAP into the ER [2]	other results
GEFAPGNYPAL [proteasome fragment of Sendai substrate, N-terminally elongated 11-mer]	most efficiently translocated length variant		
PSSSWDFITVD [peptide fragment said to be generated by FBL-3 cells]		completely abolishes TAP translocation	
FNKSPWFTTL [proteasome fragment of MCF substrate, 10-mer]		efficiently translocated	
KSPWFTTL	not translocated by TAP at all		
FAPGNYPAL	not efficiently translocated		
LYVDSLFFL [PRAME aa; 301-309, naturally presented in HLA-A24]			lysis of peptide pulsed targets by CTL clones [3]: very low crossreactivity
FNKSPWFTTLI [proteasome fragment of MCF substrate, 11-mer]		efficiently translocated	
